± gives the expanded uncertainty stated by the source.
Assay: molar heat capacity at constant pressure
Conditions: 101.33 kPa, Liquid, Small sample (50 mg) DSC

NCCCN [1,3-propanediamine]
Conditions	molar heat capacity at constant pressure [J/K/mol]
293.15 K	203.05 ± 3.1
294.65 K	203.21 ± 3.1
296.15 K	203.37 ± 3.1
297.65 K	203.53 ± 3.1
298.15 K	203.59 ± 3.1
299.15 K	203.7 ± 3.2
300.65 K	203.86 ± 3.2
302.15 K	204.03 ± 3.2
303.65 K	204.19 ± 3.2
305.15 K	204.36 ± 3.2
306.65 K	204.53 ± 3.2
308.15 K	204.7 ± 3.2
309.65 K	204.87 ± 3.2
311.15 K	205.04 ± 3.2
312.65 K	205.21 ± 3.2
314.15 K	205.38 ± 3.2
315.65 K	205.56 ± 3.2
317.15 K	205.73 ± 3.2
318.65 K	205.91 ± 3.2
320.15 K	206.08 ± 3.2
321.65 K	206.26 ± 3.2
323.15 K	206.43 ± 3.2
324.65 K	206.61 ± 3.2
326.15 K	206.79 ± 3.2
327.65 K	206.96 ± 3.2
329.15 K	207.14 ± 3.2
330.65 K	207.32 ± 3.2
332.15 K	207.5 ± 3.2
333.65 K	207.67 ± 3.2
335.15 K	207.85 ± 3.2
336.65 K	208.03 ± 3.2
338.15 K	208.2 ± 3.2
339.65 K	208.38 ± 3.2
341.15 K	208.56 ± 3.2
342.65 K	208.73 ± 3.2
344.15 K	208.91 ± 3.2
345.65 K	209.08 ± 3.2
347.15 K	209.26 ± 3.2
348.65 K	209.43 ± 3.2
350.15 K	209.6 ± 3.2
351.65 K	209.78 ± 3.2
353.15 K	209.95 ± 3.2

NCCCCN [1,4-butanediamine]
Conditions	molar heat capacity at constant pressure [J/K/mol]
298.15 K	236.33 ± 3.7
299.15 K	236.45 ± 3.7
300.65 K	236.61 ± 3.7
302.15 K	236.77 ± 3.7
303.65 K	236.94 ± 3.7
305.15 K	237.09 ± 3.7
306.65 K	237.25 ± 3.7
308.15 K	237.41 ± 3.7
309.65 K	237.56 ± 3.7
311.15 K	237.72 ± 3.7
312.65 K	237.87 ± 3.7
314.15 K	238.03 ± 3.7
315.65 K	238.18 ± 3.7
317.15 K	238.34 ± 3.7
318.65 K	238.49 ± 3.7
320.15 K	238.65 ± 3.7
321.65 K	238.81 ± 3.7
323.15 K	238.97 ± 3.7
324.65 K	239.13 ± 3.7
326.15 K	239.29 ± 3.7
327.65 K	239.46 ± 3.7
329.15 K	239.63 ± 3.7
330.65 K	239.8 ± 3.7
332.15 K	239.98 ± 3.7
333.65 K	240.15 ± 3.7
335.15 K	240.34 ± 3.7
336.65 K	240.52 ± 3.7
338.15 K	240.71 ± 3.7
339.65 K	240.91 ± 3.7
341.15 K	241.11 ± 3.7
342.65 K	241.32 ± 3.7
344.15 K	241.53 ± 3.7
345.65 K	241.74 ± 3.8
347.15 K	241.97 ± 3.8
348.65 K	242.2 ± 3.8
350.15 K	242.43 ± 3.8
351.65 K	242.68 ± 3.8
353.15 K	242.93 ± 3.8

NCCCCCCN [1,6-hexanediamine]
Conditions	molar heat capacity at constant pressure [J/K/mol]
314.15 K	301.08 ± 4.7
315.65 K	301.25 ± 4.7
317.15 K	301.42 ± 4.7
318.65 K	301.59 ± 4.7
320.15 K	301.77 ± 4.7
321.65 K	301.95 ± 4.7
323.15 K	302.14 ± 4.7
324.65 K	302.33 ± 4.7
326.15 K	302.53 ± 4.7
327.65 K	302.74 ± 4.7
329.15 K	302.95 ± 4.7
330.65 K	303.17 ± 4.7
332.15 K	303.4 ± 4.7
333.65 K	303.64 ± 4.7
335.15 K	303.88 ± 4.7
336.65 K	304.13 ± 4.7
338.15 K	304.4 ± 4.7
339.65 K	304.67 ± 4.7
341.15 K	304.95 ± 4.7
342.65 K	305.25 ± 4.7
344.15 K	305.55 ± 4.7
345.65 K	305.87 ± 4.7
347.15 K	306.2 ± 4.7
348.65 K	306.54 ± 4.8
350.15 K	306.89 ± 4.8
351.65 K	307.26 ± 4.8
353.15 K	307.64 ± 4.8

NCCCCCCCN [1,7-diaminoheptane]
Conditions	molar heat capacity at constant pressure [J/K/mol]
302.15 K	332.76 ± 5.2
303.65 K	332.93 ± 5.2
305.15 K	333.11 ± 5.2
306.65 K	333.29 ± 5.2
308.15 K	333.48 ± 5.2
309.65 K	333.67 ± 5.2
311.15 K	333.86 ± 5.2
312.65 K	334.06 ± 5.2
314.15 K	334.27 ± 5.2
315.65 K	334.48 ± 5.2
317.15 K	334.7 ± 5.2
318.65 K	334.92 ± 5.2
320.15 K	335.15 ± 5.2
321.65 K	335.38 ± 5.2
323.15 K	335.62 ± 5.2
324.65 K	335.87 ± 5.2
326.15 K	336.12 ± 5.2
327.65 K	336.38 ± 5.2
329.15 K	336.64 ± 5.2
330.65 K	336.91 ± 5.2
332.15 K	337.18 ± 5.2
333.65 K	337.47 ± 5.2
335.15 K	337.76 ± 5.2
336.65 K	338.05 ± 5.2
338.15 K	338.35 ± 5.2
339.65 K	338.66 ± 5.2
341.15 K	338.98 ± 5.2
342.65 K	339.3 ± 5.3
344.15 K	339.63 ± 5.3
345.65 K	339.97 ± 5.3
347.15 K	340.31 ± 5.3
348.65 K	340.66 ± 5.3
350.15 K	341.02 ± 5.3
351.65 K	341.39 ± 5.3
353.15 K	341.76 ± 5.3

NCCCCCCCCCN [1,9-diaminononane]
Conditions	molar heat capacity at constant pressure [J/K/mol]
311.15 K	398.93 ± 6.2
312.65 K	399.04 ± 6.2
314.15 K	399.17 ± 6.2
315.65 K	399.32 ± 6.2
317.15 K	399.47 ± 6.2
318.65 K	399.64 ± 6.2
320.15 K	399.82 ± 6.2
321.65 K	400.02 ± 6.2
323.15 K	400.22 ± 6.2
324.65 K	400.44 ± 6.2
326.15 K	400.67 ± 6.2
327.65 K	400.92 ± 6.2
329.15 K	401.17 ± 6.2
330.65 K	401.44 ± 6.2
332.15 K	401.72 ± 6.2
333.65 K	402.02 ± 6.2
335.15 K	402.32 ± 6.2
336.65 K	402.64 ± 6.2
338.15 K	402.97 ± 6.2
339.65 K	403.32 ± 6.2
341.15 K	403.67 ± 6.2
342.65 K	404.04 ± 6.3
344.15 K	404.43 ± 6.3
345.65 K	404.82 ± 6.3
347.15 K	405.23 ± 6.3
348.65 K	405.65 ± 6.3
350.15 K	406.08 ± 6.3
351.65 K	406.52 ± 6.3
353.15 K	406.98 ± 6.3

NCCN [ethane-1,2-diamine]
Conditions	molar heat capacity at constant pressure [J/K/mol]
293.15 K	172.34 ± 2.7
294.65 K	172.43 ± 2.7
296.15 K	172.53 ± 2.7
297.65 K	172.63 ± 2.7
298.15 K	172.66 ± 2.7
299.15 K	172.73 ± 2.7
300.65 K	172.84 ± 2.7
302.15 K	172.95 ± 2.7
303.65 K	173.06 ± 2.7
305.15 K	173.17 ± 2.7
306.65 K	173.29 ± 2.7
308.15 K	173.41 ± 2.7
309.65 K	173.53 ± 2.7
311.15 K	173.66 ± 2.7
312.65 K	173.79 ± 2.7
314.15 K	173.92 ± 2.7
315.65 K	174.05 ± 2.7
317.15 K	174.18 ± 2.7
318.65 K	174.31 ± 2.7
320.15 K	174.45 ± 2.7
321.65 K	174.59 ± 2.7
323.15 K	174.72 ± 2.7
324.65 K	174.86 ± 2.7
326.15 K	175 ± 2.7
327.65 K	175.15 ± 2.7
329.15 K	175.29 ± 2.7
330.65 K	175.43 ± 2.7
332.15 K	175.58 ± 2.7
333.65 K	175.72 ± 2.7
335.15 K	175.86 ± 2.7
336.65 K	176.01 ± 2.7
338.15 K	176.15 ± 2.7
339.65 K	176.3 ± 2.7
341.15 K	176.44 ± 2.7
342.65 K	176.59 ± 2.7
344.15 K	176.73 ± 2.7
345.65 K	176.87 ± 2.7
347.15 K	177.02 ± 2.7
348.65 K	177.16 ± 2.7
350.15 K	177.3 ± 2.8
351.65 K	177.44 ± 2.8
353.15 K	177.58 ± 2.8
